Source: patent US11716994B2, “Combinations of Yersinia entomophaga and pesticides or other substances” (priority 2017, dated 2023)
Like-named read-outs stand apart in the source and are kept apart here.

Experiments:
[1] = tested on: fall armyworm; assay: Leaf disk mortality assay, Y. entomophaga cells with chemical insecticides; conditions: for LT50 (95% confidence intervals) in days: 3rd instar; for LT50 (95% confidence intervals) in days / mortality at 60 µg/mL: clothianidin 60 mg/L; for mortality at 60 µg/mL: Spodoptera frugiperda, foliar; for % Mort. Chem.: fall armyworm, Clothianidin 60 mg/L
[2] = tested on: diamondback moth; assay: whole plant or invertebrate; conditions: for LT50 (95% confidence intervals): 2nd instar diamondback moth; for LT50 (95% confidence intervals) / mortality at 60 µg/mL / mortality at 0.29 µg/mL: alone or combined; for LT50 Chem. / % Mort. Chem.: Diamondback moth; for mortality at 60 µg/mL / mortality at 0.29 µg/mL: Plutella xylostella, foliar, Abbott's corrected
Excerpt: (§1) These were set to dry for 1 hr.
as §1
These were set to dry for 1 hr. Cabbage disks were then dipped in either 1% Luria broth (LB) media solution (controls and thiacloprid alone treatments) or in 1% cell free filtrate from a culture Y. entomophaga isolate O24G3R (Y. entomophaga alone or in combination with thiacloprid treatments).

[3] = tested on: cabbage looper; conditions: for LT50 Chem. / % Mort. Chem.: Cabbage Looper
Experimental: To produce cell free filtrates, cultures of Yersinia entomophaga grown in LB medium were centrifuged at 11,448 (g) for 10 minutes. The supernatant was decanted from the centrifuged pellet and filtered through a 0.22 μm filter. Assays were performed to determine concentrations of Yen-TC (toxin complex) using ELISA, and chitinase by measuring chitinase activity on specific substrates. […] This was done to estimate relative potency of the cell free filtrates. Insects were first pre-screened with a range of dilutions of cell free filtrates to select a concentration that provided moderate activity. […] Based on these initial screens, undiluted cell free filtrate was used for cabbage looper, fall armyworm, black cutworm, and Colorado potato beetle. […] In each of the Examples below, this is expressed as 1%.
Cabbage leaf disks were dipped in either acetone (controls and Y. entomophaga alone treatments) or novaluron (Sigma 32419) at 1.0 mg/L in acetone. These were set to dry for 1 hr. […] After the cabbage disks had dried for 1 hr, a single 3rd instar cabbage looper was added to each individual cabbage disk. A total of 20 insects were evaluate for each treatment. Insects were observed daily and scored as live or dead.

[4] = tested on: black cutworm; assay: Leaf disk mortality assay, Y. entomophaga cells with chemical insecticides; conditions: for LT50 Chem. / % Mort. Chem.: black cutworm
[5] = tested on: cabbage looper
[6] = tested on: Colorado potato beetle; assay: Tomato leaf disk mortality assay, Y. entomophaga cells with chemical insecticides; conditions: for LT50 (95% confidence intervals): isolate O43NEW 1×10^7 cfu/mL; for % Mort. Chem. / LT50 Chem.: Colorado potato beetle; for % Mort. Chem.: 5 DAT; for mortality at 0.88 µg/mL / mortality at 120 µg/mL: Leptinotarsa decemlineata, in Solanum lycopersicum, foliar
[7] = tested on: diamondback moth; assay: Leaf disk mortality assay, Y. entomophaga cells with chemical insecticides; conditions: for mortality at 0.29 µg/mL / mortality at 150 µg/mL: Plutella xylostella, foliar; for % Mort. Chem. / LT50 Chem.: diamondback moth
[8] = 3rd instar, deltamethrin 0.175 mg/L, isolate O43NEW 1×10^4 cfu/mL
[9] = 3rd instar, deltamethrin 1.75 mg/L, isolate O43NEW 1×10^4 cfu/mL
[10] = 48 h, read-out: % Mortality (2DAT)
[11] = 120 h, read-out: % Mortality (5DAT)
[12] = 144 h, read-out: % Mortality (6DAT)
[13] = 168 h, read-out: % Mortality (7DAT)
[14] = 96 h, read-out: % Mortality (4DAT)

In the case of `CN/C(=N\[N+](=O)[O-])NCc1cnc(Cl)s1` [Clothianidin], the “LT50 (95% confidence intervals) in days” value ([1]; isolate O24G3R 1×10^5 cfu/mL) is reported as 9.38 (8.57-10.27) days, the “LT50 (95% confidence intervals) in days” value ([1]; isolate O43NEW 1×10^5 cfu/mL) is reported as 10.94 (9.97-12.03) days and the “LT50 (95% confidence intervals) in days” value ([1]; isolate O333A4 1×10^5 cfu/mL) is reported as 22.94 (19.21-27.62) days. The mortality at 60 µg/mL ([1]; 96 h, read-out: % Mortality (4DAT), 3rd instar, isolate O333A4 1×10^5 cfu/mL) was 0%, the mortality at 60 µg/mL ([1]; 120 h, read-out: % Mortality (5DAT), 3rd instar, isolate O24G3R 1×10^5 cfu/mL) was 5% and the mortality at 60 µg/mL ([1]; 120 h, read-out: % Mortality (5DAT), 3rd instar, isolate O333A4 1×10^5 cfu/mL) was 0%. For the same compound, the mortality at 60 µg/mL ([1]; 144 h, read-out: % Mortality (6DAT), 3rd instar, isolate O24G3R 1×10^5 cfu/mL) was 11%, the mortality at 60 µg/mL ([1]; 168 h, read-out: % Mortality (7DAT), 3rd instar, isolate O43NEW 1×10^5 cfu/mL) was 0% and the mortality at 60 µg/mL ([1]; 168 h, read-out: % Mortality (7DAT), 3rd instar, isolate O333A4 1×10^5 cfu/mL) was 5%. For the same compound, the mortality at 60 µg/mL ([1]; 240 h, read-out: % Mortality (10DAT), 3rd instar, isolate O43NEW 1×10^5 cfu/mL) was 0%, the mortality at 60 µg/mL ([1]; 312 h, read-out: % Mortality (13DAT), 3rd instar, isolate O43NEW 1×10^5 cfu/mL) was 11% and the “% Mort. Chem.” value ([1]; 5 DAT) was 5%. For the same compound, the “% Mort. Chem.” value ([1]; 7 DAT) was 5%, the “% Mort. Chem.” value ([1]; 10 DAT) was 0% and the “LT50 (95% confidence intervals)” value ([2]; clothianidin 60 mg/L, O43NEW filtrate 1%) was 6.120 days. For the same compound, the “LT50 Chem.” value ([2]; clothianidin 60 mg/L) was 6.12 days, the “% Mort. Chem.” value ([2]; clothianidin 60 mg/L, 4 DAT) was 47% and the mortality at 60 µg/mL ([2]; 96 h, read-out: % Mortality (4DAT), 2nd instar diamondback moth, clothianidin 60 mg/L, O43NEW filtrate 1%, 4 DAT) was 47%. For the same compound, the mortality at 60 µg/mL ([2]; 120 h, read-out: % Mortality (5DAT), 2nd instar diamondback moth, clothianidin 60 mg/L, O43NEW filtrate 1%, 5 DAT) was 53%, the “LT50 Chem.” value ([3]; clothianidin 60 mg/L) was 9.07 days and the “% Mort. Chem.” value ([3]; clothianidin 60 mg/L, 5 DAT) was 30%.
For `CC1(C)C(C=C(Cl)Cl)C1C(=O)OC(C#N)c1ccc(F)c(Oc2ccccc2)c1` (stereo not shown) [Cyfluthrin], the “LT50 (95% confidence intervals)” value ([4]; 3rd instar, cyfluthrin […], isolate O43NEW 1×10^4 cfu/mL) was 8.82 days, the “LT50 Chem.” value ([4]; Cyfluthrin alone […]) was 8.82 days and the “LT50 Chem.” value ([5]; cabbage looper, Cyfluthrin alone […]) was 7.33 days. The “% Mortality (4DAT)” value ([5]; in vivo) was 30%, the “% Mortality (5DAT)” value ([5]; in vivo) was 50% and the “LT75 (95% confidence intervals)” value ([5]; in vivo) was 7.326 days.
In the case of `CC1(C)[C@H](C(=O)O[C@H](C#N)c2cccc(Oc3ccccc3)c2)[C@@H]1C=C(Br)Br` [Deltamethrin], the “% Mortality (3DAT)” value [4, 8] is reported as 5%, the “% Mortality (6DAT)” value [4, 8] is reported as 35% and the “% Mortality (9DAT)” value [4, 8] is reported as 55%. The “% Mortality (10DAT)” value [4, 8] was 63%, the “LT50 (95% confidence intervals)” value [4, 8] was 7.67 days and the “% Mortality (3DAT)” value [4, 9] was 45%. For the same compound, the “LT50 (95% confidence intervals)” value [4, 9] was 3.37 days, the “% Mort. Chem.” value ([4]; Deltamethrin 0.175 mg/L, 6 DAT) was 35% and the “% Mort. Chem.” value ([4]; Deltamethrin 1.75 mg/L, 3 DAT) was 45%. For the same compound, the “LT50 Chem.” value ([4]; Deltamethrin alone 0.175 mg/L) was 7.67 days, the “LT50 Chem.” value ([4]; Deltamethrin alone 1.75 mg/L) was 3.37 days and the “LT50 (95% confidence intervals)” value ([6]; 3rd instar larva, deltamethrin 0.88 mg/L) was 11.6 days. The “% Mort. Chem.” value ([6]; Deltamethrin 0.88 mg/L) was 30%, the “LT50 Chem.” value ([6]; Deltamethrin alone 0.88 mg/L) was 11.60 days and the mortality at 0.88 µg/mL [6, 10] was 30%. For the same compound, the mortality at 0.88 µg/mL [6, 11] was 30%, the mortality at 0.88 µg/mL [6, 12] was 30% and the mortality at 0.88 µg/mL [6, 13] was 30%. The mortality at 0.88 µg/mL ([6]; 216 h, read-out: % Mortality (9DAT)) was 30%, the “LT50 (95% confidence intervals)” value ([2]; deltamethrin 0.29 mg/L, O43NEW filtrate 1%) was 11.58 days and the “LT50 (95% confidence intervals)” value ([2]; deltamethrin […], O333A4 filtrate 1%) was 12.78 days. For the same compound, the “LT50 Chem.” value ([2]; deltamethrin 0.29 mg/L) was 11.58 days, the “% Mort. Chem.” value ([2]; deltamethrin 0.29 mg/L, 4 DAT) was 16% and the “LT50 Chem.” value ([2]; deltamethrin […]) was 12.78 days. The mortality at 0.29 µg/mL ([2]; 48 h, read-out: % Mortality (2DAT), 2nd instar diamondback moth, deltamethrin 0.29 mg/L, O43NEW filtrate 1%, 2 DAT) was 0%, the mortality at 0.29 µg/mL ([2]; 72 h, read-out: % Mortality (3DAT), 2nd instar diamondback moth, deltamethrin 0.29 mg/L, O43NEW filtrate 1%, 3 DAT) was 5% and the mortality at 0.29 µg/mL ([2]; 96 h, read-out: % Mortality (4DAT), 2nd instar diamondback moth, deltamethrin 0.29 mg/L, O43NEW filtrate 1%, 4 DAT) was 16%. The mortality at 0.29 µg/mL ([2]; 168 h, read-out: % Mortality (7DAT), 2nd instar diamondback moth, deltamethrin 0.29 mg/L, O43NEW filtrate 1%, 7 DAT) was 21%, the mortality at 0.29 µg/mL ([2]; 216 h, read-out: % Mortality (9DAT), 2nd instar diamondback moth, deltamethrin 0.29 mg/L, O43NEW filtrate 1%, 9 DAT) was 25% and the “LT50 (95% confidence intervals)” value ([7]; 3rd instar, deltamethrin 0.29 mg/L, isolate O43NEW 1×10^3 cfu/mL) was 11.58 days. It also gave a mortality at 0.29 µg/mL [7, 10] of 0%, a mortality at 0.29 µg/mL [7, 14] of 16% and a mortality at 0.29 µg/mL [7, 13] of 21%. It also gave a mortality at 0.29 µg/mL ([7]; 240 h, read-out: % Mortality (10DAT)) of 32%, a mortality at 0.29 µg/mL ([7]; 336 h, read-out: % Mortality (14DAT)) of 54% and a mortality at 0.29 µg/mL ([7]; […], read-out: % Mortality (8DAT)) of 24%. For the same compound, the “% Mort. Chem.” value ([7]; Deltamethrin 0.29 mg/L, 8 DAT) was 24% and the “LT50 Chem.” value ([7]; Deltamethrin alone 0.29 mg/L) was 11.58 days.
In the case of `CC[S+]([O-])c1c(C#N)nn(-c2c(Cl)cc(C(F)(F)F)cc2Cl)c1N` (stereo not shown) [Ethiprole], the “LT50 (95% confidence intervals)” value ([6]; 4th instar larva, ethiprole 120 mg/L) is reported as 8.90 days, the “% Mort. Chem.” value ([6]; Ethiprole 120 mg/L) is reported as 21% and the “LT50 Chem.” value ([6]; Ethiprole alone 120 mg/L) is reported as 8.90 days. It also gave a mortality at 120 µg/mL ([6]; 72 h, read-out: % Mortality (3DAT)) of 21%, a mortality at 120 µg/mL [6, 14] of 21% and a mortality at 120 µg/mL [6, 11] of 21%. It also gave a mortality at 120 µg/mL [6, 12] of 37%.
With `CN1COCN(Cc2cnc(Cl)s2)/C1=N\[N+](=O)[O-]` [Thiamethoxam] the mortality at 150 µg/mL [7, 11] was 11%, the mortality at 150 µg/mL [7, 12] was 16% and the “% Mort. Chem.” value ([7]; Thiamethoxam 150 mg/L, 6 DAT) was 16%. For the same compound, the “LT50 Chem.” value ([7]; Thiamethoxam alone 150 mg/L) was 10.09 days, the “LT50 (95% confidence intervals) in days” value ([3]; 3rd instar cabbage looper, thiamethoxam 150 mg/L, O43NEW undiluted filtrate, alone or combined) was 6.97 (5.92-8.22) days and the “LT50 Chem.” value ([3]; thiamethoxam 150 mg/L) was 6.97 days. The “% Mort. Chem.” value ([3]; thiamethoxam 150 mg/L, DAT column prints 62) was 1.1%.
